These results are taken from publication PMC10222203 (Pharmaceutics, 2023).

As usually defined, the fraction unbound is free concentration divided by total concentration. A lower fraction unbound goes with little free substance.

For series [1] the following is noted: rat. The method, then: (§1) In short, lung slices were prepared by performing an in situ perfusion of the lungs of the rats with physiological saline and then filling them with agarose Type VII-A to facilitate slicing. Slices of 500 µm thickness were prepared using the Leica VT1200 microtome slicer (Leica Microsystems, Wetzlar, Germany). […] After a 5 h incubation at 37 °C in an incubated shaker (MaxQ4450 Thermo Fisher Scientific, NinoLab, Stockholm, Sweden) with a rotation speed of 45 rpm, the buffer and lung slices were sampled. To match the matrix of the lung slice samples, 200 μL of aECF was mixed with 200 μL of blank agarose-filled lung homogenate (1:4, w:v). The lung slices were individually removed, dried on filter paper, weighed, and thereafter homogenized in 9 volumes (w:v) of aECF with an ultrasonic processor (VCX-130; Sonics, Chemical Instruments AB, Stockholm, Sweden). All samples were stored at −20 °C pending LC-MS/MS analysis. Assuming that at equilibrium the concentration of the peptide in virtually protein-free buffer is equal to the interstitial fluid concentration in the lung slice, the Vu,lung (mL/g lung) was estimated using Equation (4) as a ratio of the amount of compound in the lung slice (Alung, nanomoles g lung) to the measured final buffer concentration (Cbuffer, micromole/L). […]

In the next series the test system is lung slices. The note with it: rat lung slices, 200 nM, 5 h, 37 °C. The procedure:
as §1

For series [2] the following is noted: rat, plasma, Fraction unbound in plasma, fu,plasma, undiluted rat plasma, 1 µM, equilibrium dialysis 6 h 37 °C.
Protocol: (§2) Peptide binding to plasma proteins, brain tissue homogenate, and lung tissue homogenate as well as to neuronal and astrocyte cell culture homogenates was investigated using equilibrium dialysis [47]. Undiluted plasma and brain from three peptide-naïve rats were used in the experiment. The brain homogenate was prepared by homogenizing 1 part brain with 4 parts of phosphate-buffered saline (PBS, pH 7.4). […] Semi-permeable membranes with a molecular weight cut-off of 12–14 kDa were used and placed in an HTD96b apparatus (HTDialysis, Gales Ferry, CT, USA). The undiluted plasma and respective homogenates were spiked with individual peptide to a concentration of 1 µM and were dialyzed against PBS (pH 7.4). Five technical replicates were prepared per biological replicate. The experiment was run for 6 h at 37 °C in a MaxQ4450 shaker (Thermo Fisher Scientific, NinoLab, Sweden) at 200 rpm. […] Aliquots (80 µL) were taken from the buffer and plasma/homogenate sides. To compensate for any differences in matrix during bioanalysis, the plasma and homogenate samples were mixed with equal volumes of blank buffer, and the buffer samples were mixed with an equal volume of relevant blank plasma/homogenate. Spiked plasma and respective homogenate samples were incubated to control for relative recovery and thermal stability of the peptides in respective matrices.
(§3) The unbound fraction in undiluted plasma was calculated using Equation (5), where Cbuffer is the unbound concentration of peptide in the buffer and Cplasma is the total concentration of peptide in plasma at 6 h. The binding of peptide in various homogenates was assessed in two steps. First, the fraction of unbound peptide in the diluted homogenate, fu,h,D, was calculated using Equation (6), where Chomogenate is the total concentration of peptide in respective homogenate at 6 h. Second, the correction for the dilution was implemented as described in Equation (7), where D is the dilution factor used in the preparation [47]. D was 5 for brain and lung homogenates and on average 35.3 for the cell culture studies, as determined based on the total protein content and the total volume of lysate. (5) fu,plasma=Cbuffer/Cplasma (6) fu,h,D=Cbuffer/Chomogenate (7) fu,tissue/cell=1/D/((1/fu,h,D )−1)+1/D
Another series can be described thus: in vitro. Conditions: rat, undiluted plasma, pH 7.4, Fraction unbound in plasma, fu,plasma, equilibrium dialysis 6 h 37 °C. Background: Equilibrium dialysis compares concentrations on both sides of a semipermeable membrane.

Protocol for in vitro: as §2, §3

`CC(C)C[C@@H]1NC(=O)CNC(=O)[C@H](CC(N)=O)NC(=O)[C@H](CCCNC(=N)N)NC(=O)[C@H]([C@@H](C)O)NC(=O)[C@@H]2CSSC[C@@H]3NC(=O)[C@H]([C@@H](C)O)NC(=O)CNC(=O)CNC(=O)[C@H](C(C)C)NC(=O)[C@@H]4CSSC[C@H](NC(=O)[C@H]([C@@H](C)O)NC(=O)[C@H](CSSC[C@H](NC(=O)[C@H](C(C)C)NC(=O)[C@@H]5CCCN5C1=O)C(=O)NCC(=O)N[C@@H](CCC(=O)O)C(=O)N[C@@H]([C@@H](C)O)C(=O)N4)NC(=O)CNC(=O)[C@@H]1CCCN1C(=O)[C@H]([C@@H](C)O)NC(=O)[C@H](CC(N)=O)NC3=O)C(=O)N[C@@H](CO)C(=O)N[C@@H](Cc1c[nH]c3ccccc13)C(=O)N1CCC[C@H]1C(=O)N[C@@H](C(C)C)C(=O)N2` [Kalata B1] showed a Kp uu in series [1] of 0.195 ± 0.107. In addition, in the series on lung slices, the “Vu,lung” value came out at 1.23 mL/g lung. In series [2], this compound returned a fraction unbound of 0.3.
`CC[C@H](C)[C@@H]1NC(=O)[C@@H]2CCCN2C(=O)[C@@H]2CCCN2C(=O)[C@H]([C@@H](C)CC)NC(=O)[C@H](CO)NC(=O)[C@H](CCCCN)NC(=O)[C@H]([C@@H](C)O)NC(=O)[C@@H]2CSSC[C@H](NC1=O)C(=O)N[C@@H](Cc1ccccc1)C(=O)N1CCC[C@H]1C(=O)N[C@@H](CC(=O)O)C(=O)NCC(=O)N[C@@H](CCCNC(=N)N)C(=O)N2` [SFTI-1, sunflower trypsin inhibitor-1] came in with a fraction unbound at 6 h, 1 µM in “in vitro” of 0.94.
